From patent publication US10865222B2, “Neisseria gonorrhoeae therapeutic based on CMP-nonulosonate sugars” (priority 2014, dated 2020)
Entries after “also recorded” stand apart in the source; their conditions may differ.

Legend:
[1] = molecular target: T1, gonococcal LOS sialyltransferase (Lst) (Neisseria gonorrhoeae, UniProt P72074); format: cell-based, N. gonorrhoeae; conditions: CMP salt 30 μM (20 μg/ml), 2 h at 37° C.
T1 construct: served as substrates for gonococcal Lst in the context of live bacteria; endogenous in cells; host or cells: N. gonorrhoeae F62 ΔlgtD (live bacteria)
Method: FIG. 1. Substrate specificity of gonococcal LOS sialyltransferase (Lst) N. gonorrhoeae strain F62 ΔIgtD was grown in standard gonococcal liquid media alone (‘No sialic acid’) or in media supplemented with CMP salts of the indicated sialic acid or nonulosonic acid, each at a concentration of 20 μg/ml (˜30 μM), for 2 h at 37° C. Bacteria were washed, pellets treated with protease K, lysed in 4×LDS buffer and lysates were separated on 12% Bis-Tris gels using MES running buffer. LOS was transferred to a PVDF membrane and probed with mAb 3F11 that recognizes the lacto-N-neotetraose only in the non-sialylated state; the addition of a sialic acid or nonulosonate residue abrogates mAb 3F11 binding (upper panel). LOS was also visualized by silver staining (middle panel). Sialylation or nonulosonate (NulO) modification was also quantified using whole cell ELISA with mAb 3F11 (lower graph).
To define the substrate specificity of gonococcal LOS sialyltransferase, N. gonorrhoeae F62 ΔIgtD was grown in media alone, or media that contained the CMP-activated derivatives of 7 nonulosonates (listed in Table 1), each at a concentration of 30 μM (20 μg/ml). Following incubation for 2 h at 37° C., bacteria were washed, lysed with protease K/LDS sample buffer and separated on 12% Bis-tris gels. Blots were probed with mAb 3F11, which binds to the terminal lactosamine residue of lacto-N-neotetraose (LNT); any extension beyond the terminal Gal (in this instance with a nonose) would abrogate 3F11 binding. […] Whole cell ELISA with mAb 3F11 confirmed results of western blotting (FIG. 1, lower graph).
Bacteria (F62 ΔIgtD) grown overnight on chocolate agar plates were suspended in gonococcal liquid media supplemented with IsoVitaleX (11) that contained specified concentrations of the CMP-nonulosonate. Bacteria were then incubated at 37° C. for the period specified in each experiment.
Gonococcal lysates treated with protease K (100 μg/ml) and NuPAGE® LDS Sample Buffer (4×) (Invitrogen) were separated on NuPAGE® 12% Bis-Tris (Invitrogen) gels using Novex® MES running buffer (Invitrogen) followed by sliver staining with the Bio-Rad Silver Stain Kit, or were transferred to an Immobilon PVDF membrane (Millipore). Membranes were blocked with PBS/1% milk and probed with tissue culture supernatants that contained mAb 3F11. mAb 3F11-reactive LOS bands were disclosed with anti-mouse IgM conjugated to alkaline phosphatase followed by the addition of BCIP®/NBT-Purple Liquid Substrate (Sigma).

[2] = tested on: N. gonorrhoeae F62 ΔIgtD; assay: Flow cytometry for factor H binding to bacteria; format: cell-based; parameters: key to fH binding: minimal: compared to unsialylated gonococci; conditions: for fH binding facilitated by CMP-Neu5Ac: analogue added within 2 min of CMP-Neu5Ac 20 μg/ml
Method: FIG. 3. Effects of LOS modification with various nonulosonate analogues on fH binding to N. gonorrhoeae. N. gonorrhoeae F62 ΔIgtD was grown in media alone, or media supplemented with 20 μg/ml (˜30 μM) of each of the indicated CMP-nonulosonates. Binding of bacteria to fH (10 μg/ml) was measured by flow cytometry using polyclonal goat anti-human fH. The control indicates reaction mixtures that lacked fH. Y-axis, median fluorescence of fH binding. The mean (SD) of 2 independent repeats is shown.
FIG. 7. […] A. N. gonorrhoeae F62 ΔIgtD was incubated in media containing CMP-Neu5Ac (20 μg/ml), followed […] by the addition of either CMP-Neu5Ac9Az or CMP-Leg5Ac7Ac (20, 2 or 0.2 μg/ml). Bacteria were grown for 2 h and fH binding detected by FACS using polyclonal goat anti-human fH. The Y-axis represents median fluorescence. The mean (SEM) of two independent observations is shown. B. Development of serum resistance lags behind fH binding when measured as a function of time of exposure of bacteria to CMP-Neu5Ac. CMP-Neu5Ac (20 μg/ml) was added to media containing F62 ΔIgtD and bacteria were taken at the time points indicated on the X-axis and assayed for fH binding by FACS with anti-fH mAb 90× (left Y-axis; median fluorescence (SEM)), or tested for its ability to resist killing by 10% NHS (right Y-axis; percent survival). The data represent 2-3 independent experiments. C. Representative histograms of a fH binding FACS experiment.
The addition of a terminal Neu5Ac residue to LNT-expressing LOS enhances binding of the alternative pathway inhibitor, factor H, which contributes to the ability of sialylated gonococci to resist killing by complement (7). fH binding to N. gonorrhoeae F62 ΔIgtD grown in the presence of each of the CMP-nonulosonates (20 μg/ml or 30 μM) was examined (FIG. 3). […] Reducing the CMP-nonulosonate concentrations in growth media to 2 μg/ml (3 μM) yielded similar fH binding results (FIG. 9B). Further, modification of LOS with Neu5Ac or Neu5Gc yielded similar amounts of fH binding over CMP-sialic acid concentrations ranging from 0.5 to 4 μg/ml, with near maximal fH binding observed even at the lowest concentration tested (FIG. 9C).
fH binding to bacteria was performed using flow cytometry as described previously (14). Briefly, bacteria (F62 ΔIgtD) were harvested from chocolate agar plates and grown in liquid media that contained the specified concentration of the CMP-nonulosonate as described above. Bacteria were then washed with Hanks Balanced Salt Solution (HBSS) containing 1 mM Ca^2+ and 1 mM Mg^2+ (HBSS^++) and incubated with fH purified from human plasma (Complement Technology, Inc.; concentration specified for each experiment). Bound fH was detected using either anti-fH mAb (Quidel, catalog no. A254 (mAb 90×)) or goat anti-human fH, followed by FITC conjugated anti-mouse IgG or anti-goat IgG, respectively (Sigma); both Abs had similar performance characteristics. All reaction mixtures were carried out in HBSS^++/1% BSA in a final volume of 50 μl. Flow cytometry was performed using a FACSCalibur instrument (Becton Dickinson) and data were analyzed using FlowJo (version 7.2.5; Tree Star, Inc.).

[3] = CMP-nonulosonate 20 μg/ml or 30 μM, vs unsialylated F62 ΔIgtD

T1 sequence (P72074 whole entry): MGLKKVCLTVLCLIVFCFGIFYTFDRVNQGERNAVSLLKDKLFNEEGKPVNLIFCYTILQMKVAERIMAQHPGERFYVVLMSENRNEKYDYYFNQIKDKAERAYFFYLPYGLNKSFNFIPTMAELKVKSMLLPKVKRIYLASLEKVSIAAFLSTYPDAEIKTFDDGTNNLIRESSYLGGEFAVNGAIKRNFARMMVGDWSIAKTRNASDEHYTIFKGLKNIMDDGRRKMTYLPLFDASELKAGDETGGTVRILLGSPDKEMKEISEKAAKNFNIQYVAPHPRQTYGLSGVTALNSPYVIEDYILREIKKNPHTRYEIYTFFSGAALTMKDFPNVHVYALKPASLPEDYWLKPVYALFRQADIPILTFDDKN

Row | Compound | mAb 3F11 binding / incorporation of nonulosonate onto LNT LOS (use as Lst substrate) [1] | fH binding facilitated by CMP-Neu5Ac [2] | fH binding ([2]; summary Table 1) | fH binding [2, 3] | fH binding as function of time of exposure ([2]; CMP-Neu5Ac 20 μg/ml, 2 min) | fH binding, % of maximal binding ([2]; CMP-Neu5Ac 20 μg/ml, by 16 min) | fH binding as function of time of exposure ([2]; CMP-Neu5Ac 20 μg/ml, by 32 min) | fH binding ([2]; CMP-sialic acid 0.5 to 4 μg/ml, lowest concentration tested)
1 | 5,7-diacetamido-3,5,7,9-tetradeoxy-D-glycero-D-galacto-nonulosonic acid [CMP-Leg5Ac7Ac] | decreased binding of mAb 3F11; also recorded: least incorporated | did not interfere with fH binding | minimal |  |  |  |  | 
2 | CC(=O)N[C@H]1[C@H]([C@H](O)[C@H](O)COC(C)=O)OC(OP(=O)(O)OC[C@H]2O[C@@H](n3ccc(N)nc3=O)[C@H](O)[C@@H]2O)(C(=O)O)C[C@@H]1O (stereo partly drawn) [CMP-Neu5Ac9Ac, CMP-5-acetamido-9-O-acetyl-3,5-dideoxy-D-glycero-D-galacto-nonulosonic acid] | decreased binding of mAb 3F11 |  | intermediate | intermediate |  |  |  | 
3 | CC(=O)N[C@H]1[C@H]([C@H](O)[C@H](O)CN=[N+]=[N-])OC(OP(=O)(O)OC[C@H]2O[C@@H](n3ccc(N)nc3=O)[C@H](O)[C@@H]2O)(C(=O)O)C[C@@H]1O (stereo partly drawn) [CMP-Neu5Ac9Az, CMP-5-acetamido-9-azido-3,5,9-trideoxy-D-glycero-D-galacto-nonulosonic acid] | decreased binding of mAb 3F11 | did not interfere with fH binding | minimal^A |  |  |  |  | 
4 | CC(=O)NC1C(O)CC(OP(=O)(O)OCC2OC(n3ccc(N)nc3=O)C(O)C2O)(C(=O)O)OC1C(O)C(O)CO [CMP-Neu5Ac, CMP-5-acetamido-3,5-dideoxy-D-glycero-D-galacto-nonulosonic acid, reference compound] | decreased binding of mAb 3F11 |  | high | Maximal | barely any fH binding above control levels | ~70% | near maximal binding | near maximal
5 | COC(CO)C(O)C1OC(OP(=O)(O)OCC2OC(n3ccc(N)nc3=O)C(O)C2O)(C(=O)O)CC(O)C1NC(=O)CO [CMP-Neu5Gc8Me, CMP-5-hydroxyacetamido-8-O-methyl-3,5-dideoxy-D-glycero-D-galacto-nonulosonic acid] | decreased binding of mAb 3F11 |  | minimal |  |  |  |  | 
